Measured values reported in ChEMBL document CHEMBL1201862, “PubChem BioAssay data set” (2004).
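Dose response: 5 concentrations. Exposure: 48 h. Format: 96-well plates. Endpoint: linear interpolation; highest concentration if not reached. GI50 marks 50% less growth.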 Active and inactive are the calls of the source. No stated cut-off is given here; in the data, active = GI50 up to about 1.1 µM and inactive = higher. Where a SMILES comes first, the peptide text is derived from it. Bridges are numbered along the chain shown (N, C = ends). [ ]: non-standard residue; d: D form. The star is where a group is joined. ξ: configuration not given here. X28 = O=C(/C=C/C=C/C=C/C=C/C=C/C(=O)*)NC1=C(O)CCC1=O; NMeA = CN[C@@H](C)C(=O)O; ξF = NC(Cc1ccccc1)C(=O)O; ξA = CC(N)C(=O)O

Experiments:
Assay in all cases: growth of human tumour cells (NCI), 48 h
A549 = test system: A549
CCRF-CEM = test system: CCRF-CEM
DU-145 = test system: DU-145
EKVX = test system: EKVX
HCT-116 = test system: HCT-116
HL-60 = test system: HL-60
HOP-92 = test system: HOP-92
HT-29 = test system: HT-29
IGROV-1 = test system: IGROV-1
K562 = test system: K562
MDA-N = test system: MDA-N
MOLT-4 = test system: MOLT-4
NCI-H23 = test system: NCI-H23
NCI-H522 = test system: NCI-H522
RPMI-8226 = test system: RPMI-8226
RXF 393 = test system: RXF 393
TK-10 = test system: TK-10
UACC-62 = test system: UACC-62
A498 = test system: A498

Row | SMILES | GI50 (A549) | GI50 (CCRF-CEM) | GI50 (DU-145) | GI50 (EKVX) | GI50 (HCT-116) | GI50 (HL-60) | GI50 (HOP-92) | GI50 (HT-29) | GI50 (IGROV-1) | GI50 (K562) | GI50 (MDA-N) | GI50 (MOLT-4) | GI50 (NCI-H23) | GI50 (NCI-H522) | GI50 (RPMI-8226) | GI50 (RXF 393) | GI50 (TK-10) | GI50 (UACC-62) | GI50 (A498)
1 | NS(=O)(=O)c1ccc(NNC(=O)c2cccc3c(=O)c4ccccc4[nH]c23)cc1 | > 100 µM (inactive) | 46.1 µM (inactive) | > 100 µM (inactive) | 43.6 µM (inactive) | 52.1 µM (inactive) | 35 µM (inactive) | 34.4 µM (inactive) | 66.8 µM (inactive) | 58.5 µM (inactive) | 41.7 µM (inactive) | > 100 µM (inactive) | 42.2 µM (inactive) | > 100 µM (inactive) | 41.4 µM (inactive) | 54.7 µM (inactive) | 60.4 µM (inactive) | > 100 µM (inactive) | 88.5 µM (inactive) | 
2 | COCOCc1cc(OCc2ccccc2)c(OC)cc1Br | > 100 µM (inactive) | > 100 µM (inactive) |  | > 100 µM (inactive) | > 100 µM (inactive) |  | > 100 µM (inactive) | > 100 µM (inactive) | > 100 µM (inactive) | 63.8 µM (inactive) |  |  | > 100 µM (inactive) |  | 47 µM (inactive) | 47.4 µM (inactive) | > 100 µM (inactive) | 71.9 µM (inactive) | > 100 µM (inactive)
3 | COc1ccc(-c2onc(-c3ccc([N+](=O)[O-])cc3)c2C2=NCCN2)cc1 | > 100 µM (inactive) | > 100 µM (inactive) |  | > 100 µM (inactive) | 36 µM (inactive) | > 100 µM (inactive) |  | 33.3 µM (inactive) | > 100 µM (inactive) | > 100 µM (inactive) |  | > 100 µM (inactive) | > 100 µM (inactive) | > 10 µM (inactive) | > 100 µM (inactive) | 32.3 µM (inactive) |  | > 100 µM (inactive) | 
4 | O=S(=O)(O)c1ccc2c(/N=N/c3ccc(/N=N/c4ccccc4)cc3)c(O)c(S(=O)(=O)O)cc2c1 | > 100 µM (inactive) | > 100 µM (inactive) | > 100 µM (inactive) | > 100 µM (inactive) | 50.1 µM (inactive) | > 100 µM (inactive) | > 100 µM (inactive) | > 100 µM (inactive) | > 100 µM (inactive) | > 100 µM (inactive) | > 100 µM (inactive) | > 100 µM (inactive) | > 100 µM (inactive) | > 100 µM (inactive) | > 100 µM (inactive) | > 100 µM (inactive) | > 100 µM (inactive) | > 100 µM (inactive) | 
5 | COc1ccc(Nc2nc3cc(C(F)(F)F)ccc3nc2C(=O)O)cc1OC | 41.3 µM (inactive) | 16.2 µM (inactive) | 15.4 µM (inactive) | 30.8 µM (inactive) | 27.4 µM (inactive) | 28.4 µM (inactive) | 19 µM (inactive) | 40.2 µM (inactive) | 36.5 µM (inactive) | 28.6 µM (inactive) |  | 20.1 µM (inactive) | 26.4 µM (inactive) | 30.4 µM (inactive) | 25.8 µM (inactive) | 23.3 µM (inactive) | 34.4 µM (inactive) | 23.7 µM (inactive) | 30.7 µM (inactive)
6 | Clc1ccc(-c2c3nc(c(-c4ccc(Cl)cc4)c4ccc([nH]4)c(-c4ccc(Cl)cc4)c4nc(c(-c5ccc(Cl)cc5)c5ccc2[nH]5)C=C4)C=C3)cc1 | > 100 µM (inactive) | > 100 µM (inactive) |  | > 100 µM (inactive) |  | > 100 µM (inactive) | > 100 µM (inactive) | > 100 µM (inactive) | > 100 µM (inactive) | > 100 µM (inactive) |  | > 100 µM (inactive) | > 100 µM (inactive) | > 100 µM (inactive) | > 100 µM (inactive) |  | > 100 µM (inactive) | > 100 µM (inactive) | 
7 | CCC(O)CC1OC2(CCC1C)CC1OC(=O)/C=C\C(C)(O)C(O)C(C)C(O)C(OC3CC(OC)C(O)C(C)O3)C(O)C(C)(O)CCC/C=C/C3CC(C)COC3(O)CC(O2)C1C (configuration not stated) | < 0.0214 µM (active) | 0.23 µM (active) | 2.67 µM (inactive) | < 0.01 µM (active) | 5.08 µM (inactive) | < 0.0199 µM (active) | 25.6 µM (inactive) | 12 µM (inactive) | 18.3 µM (inactive) | < 0.01 µM (active) | 2.05 µM (inactive) | 0.335 µM (active) | < 0.0176 µM (active) |  | < 0.01 µM (active) | 26.2 µM (inactive) | 1.6 µM (inactive) | 9.04 µM (inactive) | 3.82 µM (inactive)
8 | COc1cc(-c2coc3c(OC)c(OC4OC(CO)C(O)C(O)C4O)c(OC)cc3c2=O)cc(OC)c1C (configuration not stated) | 7.13 µM (inactive) | 3.75 µM (inactive) | 8.41 µM (inactive) | 11.8 µM (inactive) | 1.69 µM (inactive) | 4.53 µM (inactive) | 17.7 µM (inactive) | 7.03 µM (inactive) | 4.65 µM (inactive) | 7.29 µM (inactive) | 2.21 µM (inactive) | 5.9 µM (inactive) | 3.98 µM (inactive) | 3.36 µM (inactive) | 4.54 µM (inactive) | 2.56 µM (inactive) | 18.4 µM (inactive) | 4.42 µM (inactive) | 
9 | CC(C1CCCC1=O)C1CCCC1=O (configuration not stated) | > 100 µM (inactive) | > 100 µM (inactive) | > 100 µM (inactive) | > 100 µM (inactive) | > 100 µM (inactive) | > 100 µM (inactive) |  | > 100 µM (inactive) | > 100 µM (inactive) | > 100 µM (inactive) | > 100 µM (inactive) | > 100 µM (inactive) | > 100 µM (inactive) | > 100 µM (inactive) |  | > 100 µM (inactive) | > 100 µM (inactive) | > 100 µM (inactive) | 
10 | Fc1cc(-c2cc(-c3ccccc3)n[nH]2)c(Cl)cc1Cl | > 100 µM (inactive) | 82.2 µM (inactive) | > 100 µM (inactive) | 61.7 µM (inactive) | > 100 µM (inactive) | 28.9 µM (inactive) | > 100 µM (inactive) | > 100 µM (inactive) | 1.77 µM (inactive) | 0.492 µM (active) | > 100 µM (inactive) | 16.9 µM (inactive) | > 100 µM (inactive) | > 100 µM (inactive) | 30.9 µM (inactive) | > 100 µM (inactive) | > 100 µM (inactive) |  | 
11 | Cc1nc2c(n1CCC(C)C)C(=O)c1ccccc1C2=O | 30.4 µM (inactive) | 13.6 µM (inactive) |  | 29.7 µM (inactive) | 6.84 µM (inactive) | 6 µM (inactive) |  | 20.5 µM (inactive) | 22.3 µM (inactive) | 8.07 µM (inactive) |  | 8.26 µM (inactive) | 22.3 µM (inactive) | 20.5 µM (inactive) |  | 23.4 µM (inactive) | 41.2 µM (inactive) | 12.2 µM (inactive) | 
12 | Cc1cc(N)c2cc(NC(=O)CCCCCCCCC(=O)Nc3ccc4nc(C)cc(N)c4c3)ccc2n1 | 6.35 µM (inactive) | 10.7 µM (inactive) |  | 36.3 µM (inactive) | 5.07 µM (inactive) | 1.54 µM (inactive) | 33.7 µM (inactive) | 32.9 µM (inactive) | > 30.5 µM (inactive) | 16.9 µM (inactive) |  | 5.07 µM (inactive) | 15.2 µM (inactive) | 1.98 µM (inactive) | 5.53 µM (inactive) | > 65.3 µM (inactive) | 45.8 µM (inactive) | > 77.3 µM (inactive) | 29.5 µM (inactive)
13 | Cc1cc2nc3c(C#N)c(-c4ccccc4)cc(Nc4ccc(Cl)cc4)n3c2cc1C | > 100 µM (inactive) | 4.53 µM (inactive) |  | 8.22 µM (inactive) | > 100 µM (inactive) |  |  |  |  |  | > 100 µM (inactive) |  | > 100 µM (inactive) | 9.57 µM (inactive) | 5.6 µM (inactive) | > 100 µM (inactive) | > 100 µM (inactive) |  | > 100 µM (inactive)
14 | C=C(C)C1CC(=O)C(C)=C(O)C1 (configuration not stated) | > 100 µM (inactive) | > 100 µM (inactive) | > 100 µM (inactive) | > 100 µM (inactive) | > 100 µM (inactive) | > 100 µM (inactive) |  | > 100 µM (inactive) | > 100 µM (inactive) | > 100 µM (inactive) | > 100 µM (inactive) | > 100 µM (inactive) | > 100 µM (inactive) | > 100 µM (inactive) |  |  | > 100 µM (inactive) | > 100 µM (inactive) | 
15 | CCOc1nc2sc3c(c2c(=O)n1CCSSCCn1c(OCC)nc2sc4c(c2c1=O)CCCC4)CCCC3 | > 100 µM (inactive) |  | > 100 µM (inactive) | > 100 µM (inactive) | > 100 µM (inactive) |  |  | > 100 µM (inactive) | > 100 µM (inactive) | > 100 µM (inactive) | > 100 µM (inactive) | > 100 µM (inactive) | > 100 µM (inactive) |  | > 100 µM (inactive) |  | > 100 µM (inactive) | > 100 µM (inactive) | > 100 µM (inactive)
16 | O=C(O)c1ccccc1NS(=O)(=O)c1ccc([N+](=O)[O-])cc1 | > 100 µM (inactive) | > 100 µM (inactive) |  | > 100 µM (inactive) | > 100 µM (inactive) |  |  | > 100 µM (inactive) | > 100 µM (inactive) | > 100 µM (inactive) |  | > 100 µM (inactive) | > 100 µM (inactive) | > 100 µM (inactive) | > 100 µM (inactive) | > 100 µM (inactive) | > 100 µM (inactive) | > 100 µM (inactive) | 
17 | CC1NC(=O)[C@H](C)N(C)C(=O)[C@@H]2CCCN2C(=O)[C@@H](NC(=O)C(Cc2ccccc2)NC(=O)/C=C/C=C/C=C/C=C/C=C/C(=O)NC2=C(O)CCC2=O)COC(=O)[C@@H]2CCCN2C1=O (some centres not stated) (X28-[ξF]SP[NMeA][ξA]P; ester 2-C) | > 100 µM (inactive) | > 100 µM (inactive) | 89.3 µM (inactive) | 96.4 µM (inactive) | > 100 µM (inactive) | > 100 µM (inactive) | 78.2 µM (inactive) | > 100 µM (inactive) | > 100 µM (inactive) | > 100 µM (inactive) | > 100 µM (inactive) |  | > 100 µM (inactive) | > 100 µM (inactive) | > 100 µM (inactive) | 35.5 µM (inactive) | 30.3 µM (inactive) | > 100 µM (inactive) | 
